Patent publication US12216122B2, “Compositions and methods relating to detection, inhibition, and imaging of indoleamine 2,3-dioxygenase 1 (IDO1)” (Regeneron Pharmaceuticals, Inc., priority 2019, dated 2025)
Where two headings read alike, the source gives them in different places. Bridge positions count the residues as written; N and C are the ends. Square brackets hold non-standard residues; d marks the D form. Triazole bridges read from a SMILES are 1,4-linked. Peptide text beside a SMILES is read from it. * marks the point of attachment. Biotinyl(3aR,4R,6aS) = O=C1N[C@@H]2[C@@H](CS[C@@H]2CCCCC(=O)*)N1; dTrp(1-Me) = Cn1cc(C[C@@H](N)C(=O)O)c2ccccc21; Lys(N3) = [N-]=[N+]=NCCCC[C@H](N)C(=O)O; AEEEA = NCCOCCOCCOCC(=O)O; Pra = C#CC[C@H](N)C(=O)O

Experiments:
[1] = target: T1, His-tagged IDO1 human recombinant protein (Homo sapiens, UniProt P14902); test: IDO1 ELISA (Affinity Assay): sandwich ELISA, biotinylated ligand immobilized on NEUTRAVIDIN plate; format: binding
T1 construct: purchased BPS Biosciences 71182

murine IDO1 protein = murine IDO1 protein (Mus musculus, UniProt P28776); test: ELISA against murine IDO1 protein (species cross-reactivity); format: binding
Experimental: Protocol: A black 96-well NEUTRAVIDIN® Coated High Binding Capacity plate (15510, Pierce) was coated with 2 μM biotinylated macrocyclic peptide ligand in TBS (25 mM Tris-HCl, 150 mM NaCl, pH 7.6) for 2 h at room temperature. The plate was aspirated and then washed with Wash Buffer (0.05% (v/v) TWEEN® 20 in PBS, 6×). His-tagged IDO1 human recombinant protein (71182, BPS Biosciences) was serially diluted in Wash Buffer (from 200 to 0 nM) and incubated in the designated microwells for 1 h at room temperature. Microwells were aspirated and subsequently washed with Wash Buffer (11×). To detect the bound IDO1 protein, Alkaline Phosphatase (AP)-conjugated Anti-6×HIS TAG® antibody [HIS-1] (ab49746, Abcam) was prepared at 1:10,000 dilution and added to the microwells for 1 h at room temperature. The plate was aspirated and washed with Wash Buffer (5×). ATTOPHOS® AP Fluorescent Substrate System (S1000, Promega) was employed to develop the microwells. Using an excitation wavelength of 430 nm, fluorescent emission at 535 nm was recorded by Beckman Coulter DTX880 photometer. Titration curves were fit using a four-parameter regression curve fitting program to determine EC50 values.
To test for cross-reactivity with murine IDO1, the human IDO1 targeted macrocyclic peptide ligands were assayed against the murine IDO1 protein by ELISA.

[2] = target: T1, His-tagged IDO1 human recombinant protein; test: IDO1 ELISA (Affinity Assay): sandwich ELISA, biotinylated ligand immobilized on NEUTRAVIDIN plate; format: binding; settings: a solution of 200 nM macrocycle was immobilized; read-out: EC50, sandwich ELISA for human IDO1 protein against biotin-PEG3-modified macrocycle
[3] = Percent organic elution in reverse-phase HPLC (C18) as lipophilicity readout; format: physicochemical; settings: Table 12; C18, A=water+0.1% TFA, B=acetonitrile+0.1% TFA
Source text: The predicted increase in lipophilicity for wyvay (SEQ ID NO:2) was experimentally confirmed by the percent organic (% B) elution during reverse-phase HPLC (RP-HPLC) using a C18 column where solvents A=water+0.1% TFA and B=acetonitrile+0.1% TFA.

T1 sequence (P14902 whole entry): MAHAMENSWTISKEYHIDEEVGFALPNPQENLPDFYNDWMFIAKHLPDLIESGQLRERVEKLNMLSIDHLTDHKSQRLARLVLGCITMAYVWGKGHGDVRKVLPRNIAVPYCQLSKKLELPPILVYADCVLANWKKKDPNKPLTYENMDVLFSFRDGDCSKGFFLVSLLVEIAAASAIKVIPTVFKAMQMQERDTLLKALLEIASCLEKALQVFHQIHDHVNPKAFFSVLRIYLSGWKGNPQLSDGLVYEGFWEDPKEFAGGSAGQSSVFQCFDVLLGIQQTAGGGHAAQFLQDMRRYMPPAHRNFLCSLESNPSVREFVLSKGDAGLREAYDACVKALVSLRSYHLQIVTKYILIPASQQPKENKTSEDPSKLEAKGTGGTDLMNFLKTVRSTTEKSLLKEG
Sequence of murine IDO1 protein (P28776 whole entry): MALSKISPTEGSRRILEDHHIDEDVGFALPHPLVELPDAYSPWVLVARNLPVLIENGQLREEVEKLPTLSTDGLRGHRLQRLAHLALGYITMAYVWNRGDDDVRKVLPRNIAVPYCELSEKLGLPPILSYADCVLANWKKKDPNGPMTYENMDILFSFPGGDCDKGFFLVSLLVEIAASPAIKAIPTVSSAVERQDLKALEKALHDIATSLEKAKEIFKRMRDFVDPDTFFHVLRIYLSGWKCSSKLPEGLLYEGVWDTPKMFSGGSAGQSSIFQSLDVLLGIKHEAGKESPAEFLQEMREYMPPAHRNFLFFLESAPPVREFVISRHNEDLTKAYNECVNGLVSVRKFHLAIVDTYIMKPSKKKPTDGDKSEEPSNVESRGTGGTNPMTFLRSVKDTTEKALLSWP

| SMILES | EC50 ([1]; Table 10, read-out: Human IDO EC50) [nM] | EC50 (murine IDO1 protein; Table 10, read-out: Mouse IDO EC50) [nM] | EC50 [2] [nM] | EC50 ([1]; 2 μM biotinylated macrocycle immobilized, human IDO1 titrated 200 to 0 nM, read-out: EC50, sandwich ELISA for human IDO1 protein against biotin-PEG3-modified macrocycle) [nM] | EC50 ([1]; Example 9, read-out: Binding affinity (EC50) of prioritized Epitope 1 hits) [nM] | EC50 ([1]; Table 12, read-out: EC50) [nM] | Selectivity human versus mouse IDO1 by ELISA (murine IDO1 protein; FIG. 2F) | HPLC % B [3] [%] |
| --- | --- | --- | --- | --- | --- | --- | --- | --- |
| Cn1cc(C[C@H]2NC(=O)[C@@H](CO)NC(=O)[C@@H](Cc3ccc(O)cc3)NC(=O)[C@@H](CCCNC(=N)N)NC(=O)[C@@H](NC(=O)COCCOCCOCCNC(=O)CCCC[C@H]3SC[C@H]4NC(=O)N[C@H]43)Cc3cn(nn3)CCCC[C@@H](C(N)=O)NC(=O)[C@@H](CCCNC(=N)N)NC2=O)c2ccccc21 [rys(Me-Trp)r, biotin-PEG3-Cy(rys(Me-Trp)r)] ({Biotinyl(3aR,4R,6aS)-AEEEA}-[Pra][dR][dY][dS][dTrp(1-Me)][dR][Lys(N3)]-NH2; triazole 1-7) | 91 ± 22 | 17 | 81 |  |  |  |  |  |
| C[C@H]1NC(=O)[C@@H](CCCNC(=N)N)NC(=O)[C@@H](Cc2ccc(O)cc2)NC(=O)[C@@H](Cc2c[nH]c3ccccc23)NC(=O)[C@@H](NC(=O)COCCOCCOCCNC(=O)CCCC[C@H]2SC[C@H]3NC(=O)N[C@H]32)CC2=CC(CCCC[C@@H](C(N)=O)NC(=O)[C@@H](Cc3ccc(O)cc3)NC1=O)N=N2 (some centres unmarked) [wyray, biotin-PEG3-Cy(wyray)] |  |  |  | 25 | 25 | 25 | selectivity for the human recombinant protein over mouse is observed | 25.7 |
